# What was measured:
# Assay type in all cases: in vivo
# [1] = system: Echinochloa crus-galli (ECHCG); assay: Herbicidal post-emergence action (Table B1); details: rated visually after about 3 weeks, 100% = plants have died, 0% = like control plants
# Summary of the method: (§1)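 Post-emergence spray, one-leaf stage (2–3 wk after sowing), sandy loam, greenhouse. WP/EC in water + 0.5% additive, 600 L/ha, 1280 or 320 g/ha. Visual % activity vs untreated after ~3 wk (0% = like control, 100% = plants dead).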
# Lolium rigidum (LOLRI) [2] = assay: Herbicidal post-emergence action (Table B2); details: 1280 g/ha; rated visually after about 3 weeks; 100% = plants have died, 0% = like control plants
# Protocol: (§2) Seeds of mono- and dicotyledonous weed plants were placed in plastic pots in sandy loam soil (doubly sown with in each case one species of mono- or dicotyledonous weed plants per pot), covered with soil and cultivated in a greenhouse under controlled growth conditions. 2 to 3 weeks after sowing, the test plants were treated at the one-leaf stage. The compounds of the invention, formulated in the form of wettable powders (WP) or as emulsion concentrates (EC), were applied onto the green parts of the plants as aqueous suspension or emulsion with addition of 0.5% additive at a water application rate of 600 liters per hectare (converted). After the test plants had been kept in the greenhouse under optimum growth conditions for about 3 weeks, the activity of the preparations was rated visually in comparison to untreated controls. For example, 100% activity=the plants have died, 0% activity=like control plants. Tables B1 to B12 below show the effects of selected compounds of the general formula (I) according to Table 1 on various harmful plants and an application rate corresponding to 1280 or 320 g/ha, which were obtained by the experimental procedure mentioned above.
# Poa annua (POAAN) [3] = assay: Herbicidal post-emergence action (Table B3); details: rated visually after about 3 weeks, 100% = plants have died, 0% = like control plants
# Summary of the method: as §1
# [4] = system: Abutilon theophrasti (ABUTH); assay: Herbicidal post-emergence action (Table B5); details: rated visually after about 3 weeks, 100% = plants have died, 0% = like control plants
# Summary of the method: as §1
# [5] = system: Amaranthus retroflexus (AMARE); assay: Herbicidal post-emergence action (Table B6); details: visual rating about 3 weeks after treatment, 100% = plants have died, 0% = like control plants
# Summary of the method: as §1
# Stellaria media (STEME) [6] = assay: Herbicidal post-emergence action (Table B8); details: visual rating about 3 weeks after treatment, 100% = plants have died, 0% = like control plants
# Summary of the method: as §1
# [7] = system: Echinochloa crus-galli (ECHCG); assay: Herbicidal pre-emergence action, test C (Table C1); details: visual scoring after about 3 weeks, 100% = plants have died, 0% = like control plants
# Summary of the method: (§3)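 Greenhouse pre-emergence test: compound formulations (WP or EC) are applied at 1280 or 320 g/ha to the soil surface over sown weed seeds, with 0.5% additive in 600 L/ha water. After about 3 weeks, percent activity is assessed visually, 100% indicating dead plants.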
# Lolium rigidum (LOLRI) [8] = assay: Herbicidal pre-emergence action, test C (Table C2); details: dosage 1280 g/ha; visual scoring after about 3 weeks; 100% = plants have died, 0% = like control plants
# Summary of the method: as §3
# Poa annua (POAAN) [9] = assay: Herbicidal pre-emergence action, test C (Table C3); details: visual scoring after about 3 weeks, 100% = plants have died, 0% = like control plants
# Summary of the method: as §3
# Setaria viridis (SETVI) [10] = assay: Herbicidal pre-emergence action, test C (Table C4); details: visual scoring after about 3 weeks, 100% = plants have died, 0% = like control plants
# Summary of the method: as §3
# [11] = system: Abutilon theophrasti (ABUTH); assay: Herbicidal pre-emergence action, test C (Table C5); details: visual scoring after about 3 weeks, 100% = plants have died, 0% = like control plants
# Summary of the method: as §3
# [12] = system: Amaranthus retroflexus (AMARE); assay: Herbicidal pre-emergence action, test C (Table C6); details: visual scoring after about 3 weeks, 100% = plants have died, 0% = like control plants
# Summary of the method: as §3
# [13] = system: Matricaria inodora (MATIN); assay: Herbicidal pre-emergence action, test C (Table C7); details: visual scoring after about 3 weeks, 100% = plants have died, 0% = like control plants
# Summary of the method: as §3
# Stellaria media (STEME) [14] = assay: Herbicidal pre-emergence action, test C (Table C8); details: visual scoring after about 3 weeks, 100% = plants have died, 0% = like control plants
# Summary of the method: as §3
# [15] = system: harmful plants ABUTH, AMARE, ECHCG, LOLRI, MATIN, POAAN, SETVI, STEME, ALOMY, DIGSA, KCHSC and VERPE; assay: Herbicidal post-emergence action, summary of Tables B1-B12; details: application rate of 1280 or 320 g of active ingredient per hectare; summary in words
# Summary of the method: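 Activity scored by eye roughly 3 weeks post-treatment against untreated plants, from 0% (no effect) to 100% (plants dead). Application rates were 1280 or 320 g/ha, as aqueous WP/EC spray plus 0.5% additive at 600 L/ha, onto one-leaf-stage weeds grown 2–3 weeks in sandy loam.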
# [16] = system: harmful plants ABUTH, AMARE, ECHCG, LOLRI, MATIN, POAAN, SETVI, STEME, ALOMY, DIGSA, KCHSC and VERPE; assay: Herbicidal pre-emergence action (test C), summary of Tables C1-C12; details: application rate of 1280 or 320 g of active ingredient per hectare; summary in words
# Summary of the method: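 Visual % damage versus untreated plants (0% = like control, 100% = died) was scored after about 3 weeks in the greenhouse. Before emergence, seeds sown in sandy loam got a soil-surface spray of compound as WP or EC plus 0.5% additive, using 600 L/ha water at rates of 1280 or 320 g/ha.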
# Setaria viridis (SETVI) [17] = assay: Herbicidal post-emergence action (Table B4); details: rated visually after about 3 weeks, 100% = plants have died, 0% = like control plants
# Protocol: as §2
Compound,Post-emergence action against Echinochloa crus-galli (ECHCG) ([1]; 320 g/ha) [%],Post-emergence action against Echinochloa crus-galli (ECHCG) ([1]; 1280 g/ha) [%],Post-emergence action against Lolium rigidum (LOLRI) (Lolium rigidum (LOLRI) [2]) [%],Post-emergence action against Poa annua (POAAN) (Poa annua (POAAN) [3]; 320 g/ha) [%],Post-emergence action against Poa annua (POAAN) (Poa annua (POAAN) [3]; 1280 g/ha) [%],Post-emergence action against Abutilon theophrasti (ABUTH) ([4]; 320 g/ha) [%],Post-emergence action against Abutilon theophrasti (ABUTH) ([4]; 1280 g/ha) [%],Post-emergence action against Amaranthus retroflexus (AMARE) ([5]; dosage 1280 g/ha) [%],Post-emergence action against Stellaria media (STEME) (Stellaria media (STEME) [6]; dosage 320 g/ha) [%],Post-emergence action against Stellaria media (STEME) (Stellaria media (STEME) [6]; dosage 1280 g/ha) [%],Pre-emergence action against Lolium rigidum (LOLRI) (Lolium rigidum (LOLRI) [8]) [%],Pre-emergence action against Poa annua (POAAN) (Poa annua (POAAN) [9]; dosage 320 g/ha) [%],Pre-emergence action against Poa annua (POAAN) (Poa annua (POAAN) [9]; dosage 1280 g/ha) [%],Pre-emergence action against Setaria viridis (SETVI) (Setaria viridis (SETVI) [10]; dosage 320 g/ha) [%],Pre-emergence action against Setaria viridis (SETVI) (Setaria viridis (SETVI) [10]; dosage 1280 g/ha) [%],Pre-emergence action against Abutilon theophrasti (ABUTH) ([11]; dosage 320 g/ha) [%],Pre-emergence action against Abutilon theophrasti (ABUTH) ([11]; dosage 1280 g/ha) [%],Pre-emergence action against Amaranthus retroflexus (AMARE) ([12]; dosage 1280 g/ha) [%],Pre-emergence action against Matricaria inodora (MATIN) ([13]; dosage 1280 g/ha) [%],herbicidal activity against the harmful plants of Tables B1-B12 in post-emergence treatment [15],also measured
Fc1cccc(Oc2ccccn2)c1-c1cc(C(F)F)no1 [Example 1-16],90,100,100,100,100,100,100,100,100,100,100,100,100,100,100,100,100,100,100,very good herbicidal activity,Post-emergence action against Amaranthus retroflexus (AMARE) ([5]; dosage 320 g/ha): 100%; Pre-emergence action against Echinochloa crus-galli (ECHCG) ([7]; dosage 1280 g/ha): 90%; Pre-emergence action against Amaranthus retroflexus (AMARE) ([12]; dosage 320 g/ha): 100%; Pre-emergence action against Matricaria inodora (MATIN) ([13]; dosage 320 g/ha): 90%; Pre-emergence action against Stellaria media (STEME) (Stellaria media (STEME) [14]; dosage 320 g/ha): 100%; Pre-emergence action against Stellaria media (STEME) (Stellaria media (STEME) [14]; dosage 1280 g/ha): 100%; herbicidal activity against the harmful plants of Tables C1-C12 in pre-emergence treatment [16]: very good herbicidal activity
Fc1cccc(Oc2ncc(Cl)cc2Cl)c1-c1cc(C(F)F)no1 [Example 1-21],100,100,100,100,100,100,100,90,100,100,100,100,100,100,100,90,90,100,90,very good herbicidal activity,Post-emergence action against Setaria viridis (SETVI) (Setaria viridis (SETVI) [17]; 320 g/ha): 90%; Post-emergence action against Setaria viridis (SETVI) (Setaria viridis (SETVI) [17]; 1280 g/ha): 100%; Pre-emergence action against Amaranthus retroflexus (AMARE) ([12]; dosage 320 g/ha): 100%; herbicidal activity against the harmful plants of Tables C1-C12 in pre-emergence treatment [16]: very good herbicidal activity
Fc1cccnc1Oc1cccc(F)c1-c1cc(C(F)F)no1 [Example 1-23],100,100,100,100,100,100,100,100,100,100,100,90,100,100,100,100,100,100,100,very good herbicidal activity,Post-emergence action against Setaria viridis (SETVI) (Setaria viridis (SETVI) [17]; 1280 g/ha): 90%; Post-emergence action against Amaranthus retroflexus (AMARE) ([5]; dosage 320 g/ha): 100%; Pre-emergence action against Echinochloa crus-galli (ECHCG) ([7]; dosage 320 g/ha): 100%; Pre-emergence action against Echinochloa crus-galli (ECHCG) ([7]; dosage 1280 g/ha): 100%; Pre-emergence action against Matricaria inodora (MATIN) ([13]; dosage 320 g/ha): 90%; Pre-emergence action against Stellaria media (STEME) (Stellaria media (STEME) [14]; dosage 320 g/ha): 100%; Pre-emergence action against Stellaria media (STEME) (Stellaria media (STEME) [14]; dosage 1280 g/ha): 100%; herbicidal activity against the harmful plants of Tables C1-C12 in pre-emergence treatment [16]: very good herbicidal activity
